Assay results taken from ChEMBL document CHEMBL1649249, “Antifungal activity of micafungin in serum” (Antimicrob Agents Chemother, 2009).
*1 amine or outer side, *2 acyl side, *3 side chain or, on linkers, in order; H or OH if unused. Where a SMILES comes first, the peptide text is derived from it. Bridges are numbered along the chain shown (N, C = ends). [ ]: non-standard residue; d: D form. The star is where a group is joined. hTyr(3S-OH,4S-OH,3'-OSO3H) = N[C@H](C(=O)O)[C@H](O)[C@@H](O)c1ccc(O)c(OS(=O)(=O)O)c1; Orn(4R-OH,5R-OH) = O=C([C@H](C[C@@H](O)[C@@H](O)N[*:3])N[*:1])[*:2]; Pro(3S-OH,4S-Me) = C[C@H]1CN[C@H](C(=O)O)[C@H]1O; X1 = CCCCCOc1ccc(-c2cc(-c3ccc(C(=O)*)cc3)no2)cc1; Gln(3R-OH) = NC(=O)C[C@@H](O)[C@H](N)C(=O)O; Hyp = O=C(O)[C@@H]1C[C@@H](O)CN1

Legend:
[1] = Ratio of MIC for Candida albicans FP633 collected from peak serum sample on day 15 from patient with acute myeloid leukemia at 1.1 mg/kg to Cmax for patient with acute myeloid leukemia at 1.1 mg/kg; type: functional
[2] = test system: Candida albicans; experiment: Antifungal activity against Candida albicans FP633 collected from peak serum sample on day 43 from patient with myelodysplastic syndrome at 1.4 mg/kg by disk diffusion method; type: functional
[3] = Ratio of MIC for Candida albicans FP633 collected from peak serum sample on day 17 from patient with acute lymphoblastic leukemia at 1.2 mg/kg in presence of human serum to Cmax for patient with acute lymphoblastic leukemia at 1.2 mg/kg; type: functional
[4] = Ratio of MIC for Candida albicans FP633 collected from peak serum sample on day 43 from patient with myelodysplastic syndrome at 3.9 mg/kg to Cmax for patient with myelodysplastic syndrome at 3.9 mg/kg; type: functional
[5] = test system: Candida albicans; experiment: Antifungal activity against Candida albicans FP633 collected from peak serum sample on day 8 from patient with acute myeloid leukemia at 1.1 mg/kg by disk diffusion method; type: functional
[6] = Ratio of MIC for Candida albicans FP633 collected from peak serum sample on day 17 from patient with acute lymphoblastic leukemia at 1.2 mg/kg to Cmax for patient with acute lymphoblastic leukemia at 1.2 mg/kg; type: functional
[7] = test system: Candida albicans; experiment: Antifungal activity against Candida albicans FP633 collected from trough serum sample on day 15 from patient with acute myeloid leukemia at 1.1 mg/kg by disk diffusion method; type: functional
[8] = Ratio of MIC for Candida albicans FP633 collected from peak serum sample on day 8 from patient with acute myeloid leukemia at 1.1 mg/kg to Cmax for patient with acute myeloid leukemia at 1.1 mg/kg; type: functional
[9] = test system: Candida albicans; experiment: Antifungal activity against Candida albicans FP633 collected from peak serum sample on day 43 patient with malignant lymphoma at 4.8 mg/kg by disk diffusion method; type: functional
[10] = Cmax in patient with malignant lymphoma infected with Candida albicans FP633 at 2.6 mg/kg administered once daily after 12 days by HPLC; type: ADME, organism-based; set-up: dose 2.6 mg/kg; settings: human, in vivo
[11] = Ratio of MIC for Candida albicans FP633 collected from peak serum sample on day 12 from patient with malignant lymphoma at 2.6 mg/kg in presence of human serum to Cmax for patient with malignant lymphoma at 2.6 mg/kg; type: functional
[12] = Cmax in patient with malignant lymphoma infected with Candida albicans FP633 at 3.9 mg/kg administered once daily after 10 days by HPLC; type: ADME, organism-based; set-up: dose 3.9 mg/kg; settings: human, in vivo
[13] = test system: Candida albicans; experiment: Antifungal activity against Candida albicans FP633 collected from trough serum sample on day 15 from patient with acute myeloid leukemia at 1.1 mg/kg by disk diffusion method in presence of human serum; type: functional
[14] = test system: Candida albicans; experiment: Antifungal activity against Candida albicans FP633 collected from peak serum sample on day 15 from patient with acute lymphoblastic leukemia at 1.2 mg/kg by disk diffusion method in presence of human serum; type: functional
[15] = Ratio of MIC for Candida albicans FP633 collected from trough serum sample on day 15 from patient with acute lymphoblastic leukemia at 1.2 mg/kg to Cmax for patient with acute lymphoblastic leukemia at 1.2 mg/kg; type: functional
[16] = Ratio of MIC for Candida albicans FP633 collected from peak serum sample on day 15 from patient with acute myeloid leukemia at 1.1 mg/kg in presence of human serum to Cmax for patient with acute myeloid leukemia at 1.1 mg/kg; type: functional
[17] = Ratio of MIC for Candida albicans FP633 collected from peak serum sample on day 15 from patient with acute lymphoblastic leukemia at 1.2 mg/kg in presence of human serum to Cmax for patient with acute lymphoblastic leukemia at 1.2 mg/kg; type: functional
[18] = Ratio of MIC for Candida albicans FP633 collected from peak serum sample on day 8 from patient with acute myeloid leukemia at 1.1 mg/kg in presence of human serum to Cmax for patient with acute myeloid leukemia at 1.1 mg/kg; type: functional
[19] = Cmax in patient with acute myeloid leukemia infected with Candida albicans FP633 at 1.1 mg/kg administered once daily after 8 days by HPLC; type: ADME, organism-based; set-up: dose 1.1 mg/kg; settings: human, in vivo
[20] = Ratio of MIC for Candida albicans FP633 collected from trough serum sample on day 15 from patient with acute myeloid leukemia at 1.1 mg/kg to Cmax for patient with acute myeloid leukemia at 1.1 mg/kg; type: functional
[21] = test system: Candida albicans; experiment: Antifungal activity against Candida albicans FP633 collected from trough serum sample on day 15 from patient with acute lymphoblastic leukemia at 1.2 mg/kg by disk diffusion method in presence of human serum; type: functional
[22] = Ratio of MIC for Candida albicans FP633 collected from peak serum sample on day 12 from patient with malignant lymphoma at 2.6 mg/kg to Cmax for patient with malignant lymphoma at 2.6 mg/kg; type: functional
[23] = Ratio of MIC for Candida albicans FP633 collected from trough serum sample on day 15 from patient with acute myeloid leukemia at 1.1 mg/kg in presence of human serum to Cmax for patient with acute myeloid leukemia at 1.1 mg/kg; type: functional
[24] = Cmax in patient with acute lymphoblastic leukemia infected with Candida albicans FP633 at 1.2 mg/kg administered once daily after 17 days by HPLC; type: ADME, organism-based; set-up: dose 1.2 mg/kg; settings: human, in vivo
[25] = test system: Candida albicans; experiment: Antifungal activity against Candida albicans FP633 collected from peak serum sample on day 17 from patient with acute lymphoblastic leukemia at 1.2 mg/kg by disk diffusion method in presence of human serum; type: functional
[26] = test system: Candida albicans; experiment: Antifungal activity against Candida albicans FP633 collected from peak serum sample on day 15 from patient with acute lymphoblastic leukemia at 1.2 mg/kg by disk diffusion method; type: functional
[27] = test system: Candida albicans; experiment: Antifungal activity against Candida albicans FP633 collected from peak serum sample on day 8 from patient with acute myeloid leukemia at 1.1 mg/kg by disk diffusion method in presence of human serum; type: functional
[28] = Cmax in patient with malignant lymphoma infected with Candida albicans FP633 at 5.8 mg/kg administered once daily after 8 days by HPLC; type: ADME, organism-based; set-up: dose 5.8 mg/kg; settings: human, in vivo
[29] = Cmax in patient with malignant lymphoma infected with Candida albicans FP633 at 4.8 mg/kg administered once daily after 43 days by HPLC; type: ADME, organism-based; set-up: dose 4.8 mg/kg; settings: human, in vivo
[30] = test system: Candida albicans; experiment: Antifungal activity against Candida albicans FP633 collected from peak serum sample on day 17 from patient with acute lymphoblastic leukemia at 1.2 mg/kg by disk diffusion method; type: functional
[31] = Ratio of MIC for Candida albicans FP633 collected from peak serum sample on day 15 from patient with acute lymphoblastic leukemia at 1.2 mg/kg to Cmax for patient with acute lymphoblastic leukemia at 1.2 mg/kg; type: functional
[32] = test system: Candida albicans; experiment: Antifungal activity against Candida albicans FP633 collected from trough serum sample on day 15 from patient with acute lymphoblastic leukemia at 1.2 mg/kg by disk diffusion method; type: functional
[33] = test system: Candida albicans; experiment: Antifungal activity against Candida albicans FP633 collected from peak serum sample on day 12 patient with malignant lymphoma at 2.6 mg/kg by disk diffusion method in presence of human serum; type: functional
[34] = test system: Candida albicans; experiment: Antifungal activity against Candida albicans FP633 collected from trough serum sample on day 8 from patient with acute myeloid leukemia at 1.1 mg/kg by disk diffusion method; type: functional
[35] = test system: Candida albicans; experiment: Antifungal activity against Candida albicans FP633 collected from peak serum sample on day 15 from patient with acute myeloid leukemia at 1.1 mg/kg by disk diffusion method in presence of human serum; type: functional
[36] = Cmax in patient with acute lymphoblastic leukemia infected with Candida albicans FP633 at 1.2 mg/kg administered once daily after 15 days by HPLC; type: ADME, organism-based; set-up: dose 1.2 mg/kg; settings: human, in vivo
[37] = test system: Candida albicans; experiment: Antifungal activity against Candida albicans FP633 collected from peak serum sample on day 15 from patient with acute myeloid leukemia at 1.1 mg/kg by disk diffusion method; type: functional
[38] = test system: Candida albicans; experiment: Antifungal activity against Candida albicans FP633 collected from peak serum sample on day 12 patient with malignant lymphoma at 2.6 mg/kg by disk diffusion method; type: functional
[39] = test system: Candida albicans; experiment: Antifungal activity against Candida albicans FP633 collected from peak serum sample on day 43 from patient with myelodysplastic syndrome at 1.4 mg/kg by disk diffusion method in presence of human serum; type: functional
[40] = test system: Candida albicans; experiment: Antimicrobial activity against Candida albicans FP633 in presence of heat inactivated mouse serum; type: functional
[41] = Cmax in patient with acute myeloid leukemia infected with Candida albicans FP633 at 1.1 mg/kg administered once daily after 15 days by HPLC; type: ADME, organism-based; set-up: dose 1.1 mg/kg; settings: human, in vivo
[42] = test system: Candida albicans; experiment: Antifungal activity against Candida albicans FP633 collected from peak serum sample on day 43 patient with malignant lymphoma at 4.8 mg/kg by disk diffusion method in presence of human serum; type: functional
[43] = Ratio of MIC for Candida albicans FP633 collected from trough serum sample on day 8 from patient with acute myeloid leukemia at 1.1 mg/kg to Cmax for patient with acute myeloid leukemia at 1.1 mg/kg; type: functional
[44] = Ratio of MIC for Candida albicans FP633 collected from trough serum sample on day 8 from patient with acute myeloid leukemia at 1.1 mg/kg in presence of human serum to Cmax for patient with acute myeloid leukemia at 1.1 mg/kg; type: functional
[45] = Ratio of MIC for Candida albicans FP633 collected from peak serum sample on day 43 from patient with malignant lymphoma at 4.8 mg/kg in presence of human serum to Cmax for patient with malignant lymphoma at 4.8 mg/kg; type: functional
[46] = Ratio of MIC for Candida albicans FP633 collected from peak serum sample on day 43 from patient with malignant lymphoma at 4.8 mg/kg to Cmax for patient with malignant lymphoma at 4.8 mg/kg; type: functional
[47] = Cmax in patient with myelodysplastic syndrome infected with Candida albicans FP633 at 1.4 mg/kg administered once daily after 45 days by HPLC; type: ADME, organism-based; set-up: dose 1.4 mg/kg; settings: human, in vivo
[48] = test system: Candida albicans; experiment: Antifungal activity against Candida albicans FP633 collected from trough serum sample on day 8 from patient with acute myeloid leukemia at 1.1 mg/kg by disk diffusion method in presence of human serum; type: functional
[49] = Ratio of MIC for Candida albicans FP633 collected from trough serum sample on day 15 from patient with acute lymphoblastic leukemia at 1.2 mg/kg in presence of human serum to Cmax for patient with acute lymphoblastic leukemia at 1.2 mg/kg; type: functional
[50] = Ratio of MIC for Candida albicans FP633 collected from peak serum sample on day 43 from patient with myelodysplastic syndrome at 3.9 mg/kg in presence of human serum to Cmax for patient with myelodysplastic syndrome at 3.9 mg/kg; type: functional
[51] = test system: Serum; experiment: Protein binding in human serum; type: ADME, cell-free

CCCCCOc1ccc(-c2cc(-c3ccc(C(=O)N[C@H]4C[C@@H](O)[C@@H](O)NC(=O)[C@@H]5[C@@H](O)[C@@H](C)CN5C(=O)[C@H]([C@H](O)CC(N)=O)NC(=O)[C@H]([C@H](O)[C@@H](O)c5ccc(O)c(OS(=O)(=O)O)c5)NC(=O)[C@@H]5C[C@@H](O)CN5C(=O)[C@H]([C@@H](C)O)NC4=O)cc3)no2)cc1 [MICAFUNGIN] (X1-[Orn(4R-OH,5R-OH)]T[Hyp][hTyr(3S-OH,4S-OH,3'-OSO3H)][Gln(3R-OH)][Pro(3S-OH,4S-Me)]; lactam 1-C)
Ratio [1]: 45 | Activity [2]: 2.5 µg/mL | Ratio [3]: 91 | Ratio [4]: 38 | Activity [5]: 3.8 µg/mL | Ratio [6]: 44 | Activity [7]: 1 µg/mL | Ratio [8]: 42 | Activity [9]: 14.1 µg/mL | Cmax [10]: 16400 ng/mL | Ratio [11]: 135 | Cmax [12]: 34200 ng/mL | Activity [13]: 1.7 µg/mL | Activity [14]: 7 µg/mL | Ratio [15]: 40 | Ratio [16]: 92 | Ratio [17]: 109 | Ratio [18]: 96 | Cmax [19]: 8400 ng/mL | Ratio [20]: 32 | Activity [21]: 1.6 µg/mL | Ratio [22]: 37 | Ratio [23]: 58 | Cmax [24]: 6500 ng/mL | Activity [25]: 5.9 µg/mL | Activity [26]: 3.3 µg/mL | Activity [27]: 8.1 µg/mL | Cmax [28]: 33600 ng/mL | Cmax [29]: 37100 ng/mL | Activity [30]: 2.9 µg/mL | Ratio [31]: 52 | Activity [32]: 0.9 µg/mL | Activity [33]: 22.1 µg/mL | Activity [34]: 1.1 µg/mL | Activity [35]: 5.2 µg/mL | Cmax [36]: 6400 ng/mL | Activity [37]: 2.5 µg/mL | Activity [38]: 6 µg/mL | Activity [39]: 4.2 µg/mL | MIC [40]: 1 µg/mL | Cmax [41]: 5600 ng/mL | Activity [42]: 34.8 µg/mL | Ratio [43]: 42 | Ratio [44]: 78 | Ratio [45]: 94 | Ratio [46]: 38 | Cmax [47]: 6700 ng/mL | Activity [48]: 2.1 µg/mL | Ratio [49]: 71 | Ratio [50]: 63 | PB [51]: 99.8%
